Experimental data as given in article PMC8464836 (Biomolecules, 2021).

What was measured:
CHO-K1 cells = assay: MTT assay on CHO-K1 cells; format: cell-based, Chinese hamster; conditions: Cricetulus griseus, cell viability, 24 h exposure, mean ± SEM, n = 3
Procedure: Standard MTT (3-[4,5-dimethylthiazol-2-yl]-2,5-diphenyltetrazolium bromide) assay (Sigma Aldrich, Prague, Czech Republic) was used according to the manufacturer´s protocol on the CHO-K1 (Chinese hamster ovary, ECACC, Salisbury, UK) in order to compare the effect of different compounds within the series. The cells were cultured according to ECACC recommended conditions and seeded in a density of 8000 per well as described previously. […] Cells were exposed to a tested compound for 24 h. Then the medium was replaced by a medium containing 10 μM of MTT and cells were allowed to produce formazan for another approximately 3 h under surveillance. Thereafter, medium with MTT was sucked out and crystals of formazan were dissolved in DMSO (100 µL). Cell viability was assessed spectrophotometrically by the amount of formazan produced. Absorbance was measured at 570 nm with 650 nm reference wavelength on Synergy HT (BioTek, Winooski, VT, USA). IC50 was then calculated from the control-subtracted triplicates using non-linear regression (four parameters) of GraphPad Prism 9 software. Final IC50 and SEM values were obtained as a mean of three independent measurements.

[1] = molecular target: T1, dopamine receptor (D2) wild type (D2Rs) (Homo sapiens, UniProt P14416); assay: D2R competition binding with [3H]-spiperone on membranes of transfected CHO cells; conditions: for Ki: D2Rs, competition with 180 pM [3H]-spiperone, mean ± SEM, n = 3; for IC50: Table S1, D2Rs, mean ± S.E.M. of 3 independent experiments in triplicate, read-out: IC50 in µM ± SEM
T1 construct: host or cells: CHO cells, transient PEI transfection; membranes prepared 48 h after transfection
Procedure: Chinese hamster ovary cells (CHO cells) were used for the binding experiments. About 24 h before transfection, CHO cells were plated on a 10 cm Petri dish at a density of 1.5 × 10^6 cells and cultivated in 10 mL DMEM/Ham’s F12 supplemented with 10% heat-inactivated fetal bovine serum (FBS).
For transfection, the desired amount of linear polyethyleneimine (PEI) 25_K (Polysciences, Eppelheim, Germany) and DNA (dopamine receptor (D2) wild type, cDNA resource centre, Bloomsberg, PA, USA) were diluted separately in phosphate buffer saline (PBS). After 20 min, DNA was added to PEI solution, mixed and left for an additional 30 min. Final concentration of reactants was 6 µg plasmid DNA and 18 µg PEI per ml. PEI/DNA complex was added (1 mL/dish) and the plates were incubated for another 24 h. Then, the medium was replaced with fresh DMEM/Ham’s F12 with 10% FBS and incubated for an additional 24 h. Cells were maintained at 37 °C in a 5% CO2-humidified atmosphere.
About 48 h after transfection, cells were washed with PBS, mechanically detached from the dish with a plastic scraper in the ice-cold PBS, and centrifuged for 3 min at 250× g. Pellet was suspended in the ice-cold homogenization medium (100 mM NaCl, 20 mM Na-HEPES, 10 mM EDTA, pH 7.4) and homogenized on ice by two 30-s strokes using Polytron homogenizer (Ultra-Turrax; Janke & Kunkel GmbH & Co. KG, IKA-Labortechnik, Staufen, Germany) with a 30-s pause between strokes. Cell homogenates were centrifuged for 5 min at 1000× g. The supernatant was collected and centrifuged for 30 min at 30,000× g. Pellets were suspended in incubation medium (100 mM NaCl, 20 mM Na-HEPES, 10 mM MgCl2, pH 7.4), left for 30 min at 4 °C and centrifuged again for 30 min at 30,000× g. The membrane pellets were kept at −80 °C until use.
All radioligand binding experiments were optimized and carried out as described by El-Fakahany and Jakubik. […] Saturation experiments were performed in 800 μL volume containing: 400 μL of the membrane suspension and 400 μL of the radioligand in six increasing concentrations (ranging from 31 to 1000 pM).
The examined compounds were diluted in incubation buffer and tested in six concentrations (ranging from 0.1 nM–1 mM). The reactions were performed in 400 µL volume containing: 100 µL of the radioligand, 100 µL of tested substances dilution, and 200 µL of the membranes.
Nonspecific binding was determined in the presence of 10 μM unlabeled sulpiride. Membrane suspensions from both saturation and binding experiments (approximately 10 μg of membrane proteins per sample) were incubated in 96-well plates for 1 h at 25 °C in the incubation medium (100 mM NaCl, 20 mM Na-HEPES,10 mM MgCl2, pH = 7.4) in a shaking incubator (25 °C; PST-60HL, Biosan, Riga, Latvia).
The binding reactions were terminated by filtration of the membranes through APFC filter plate (Millipore, Prague, Czech Republic) pre-soaked with 0.5% PEI and washed with ice-cold distilled water using a Brandel cell harvester (Brandel, Gaithersburg, MD, USA). Then, filters with labelled membranes were dried. After 24 h, scintillation cocktail (Rotiszint eco plus, Carl Roth) was added to each sample and radioactivity was quantified by liquid scintillation spectrometry using Wallac Microbeta scintillation counter (Wallac, Turku, Finland). Competition binding experiments were performed per triplicate and all experiments were performed three times. Protein concentration was determined by the Lowry method in the Peterson modification.

[2] = PAMPA assay (Polar Brain Lipid membrane); conditions: for CNS (+/−): BBB permeability class predicted from PAMPA Pe; for Papp: PAMPA, pH 7.4
Procedure: In this study, it has been used as a non-cell-based in vitro assay carried out in a coated 96-well membrane filter. The filter membrane of the donor plate was coated with PBL (Polar Brain Lipid, Avanti, AL, USA) in dodecane (4 µL of 20 mg/mL PBL in dodecane) and the acceptor well was filled with 300 µL of PBS pH 7.4 buffer (VA tested compounds were dissolved first in the DMSO/phosphate-buffered saline mixture (maximum 0.5% v/v of DMSO) and subsequently diluted with phosphate-buffered saline (pH 7.4) to final concentrations of 40–100 μM in the donor wells). […] About 300 µL of the donor solution was added to the donor wells (VD) and the donor filter plate was carefully put on the acceptor plate so that coated membrane was “in touch” with both donor solution and acceptor buffer. Test compound diffused from the donor well through the lipid membrane (Area = 0.28 cm^2) to the acceptor well. The concentration of the drug in both donor and the acceptor wells were assessed after 3, 4, 5, and 6 h of incubation in quadruplicate using the UV plate reader Synergy HT (Biotek, Winooski, VT, USA) at the maximum absorption wavelength of each compound. Besides that, solution of theoretical compound concentration, simulating the equilibrium state established if the membrane were ideally permeable was prepared and assessed as well. Concentration of the compounds in the donor and acceptor well and equilibrium concentration were calculated from the standard curve and expressed as the permeability (Pe) according to the equation:(4) Pe=C×ln(1−[drug] acceptor/[drug] equilibrium) where C=(VD×VA)/(VD×VA) Area×Time

D3Rs = conditions: Figure 1; cited from earlier work
D2Rs = conditions: Figure 1; cited from earlier work

T1 sequence (P14416 whole entry): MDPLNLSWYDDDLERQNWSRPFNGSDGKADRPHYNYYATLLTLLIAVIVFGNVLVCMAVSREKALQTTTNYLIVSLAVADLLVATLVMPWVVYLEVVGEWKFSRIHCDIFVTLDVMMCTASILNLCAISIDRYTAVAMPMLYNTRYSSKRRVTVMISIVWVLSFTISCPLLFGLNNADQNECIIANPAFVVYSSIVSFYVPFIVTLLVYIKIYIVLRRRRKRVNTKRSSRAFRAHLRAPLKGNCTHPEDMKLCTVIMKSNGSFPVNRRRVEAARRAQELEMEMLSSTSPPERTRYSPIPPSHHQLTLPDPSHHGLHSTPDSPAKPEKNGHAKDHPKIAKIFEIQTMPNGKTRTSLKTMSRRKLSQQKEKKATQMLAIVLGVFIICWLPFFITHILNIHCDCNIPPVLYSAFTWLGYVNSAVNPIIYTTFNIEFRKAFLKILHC

Row | Structure (SMILES) | IC50 (CHO-K1 cells) [mM] | Ki [1] [µM] | IC50 [1] [µM] | CNS (+/−) [2] | Papp [2] [×10⁻⁶ cm/s] | pKi for D3Rs (D3Rs) | pKi for D2Rs (D2Rs) | Ki (D2Rs) [nM]
1 | O=C1CCc2ccccc2N1CCCN1CCCC1 [5a, 1-(3-(Pyrrolidin-1-yl)propyl)-3,4-dihydroquinolin-2(1H)-one] | 2 ± 0.8 | 24 ± 5.8 | 98 ± 23 | CNS + (CNS + (high BBB permeability predicted), Pe (10^−6 cm∙s^−1) > 4.0) | 7.3 ± 0.8 | – | – | –
2 | O=C1CCc2ccccc2N1CCCN1CCCCC1 [5b, 1-(3-(Piperidin-1-yl)propyl)-3,4-dihydroquinolin-2(1H)-one] | 1.5 ± 0.3 | 9.7 ± 1.6 | 39 ± 6.4 | CNS + (CNS + (high BBB permeability predicted), Pe (10^−6 cm∙s^−1) > 4.0) | 13 ± 0.1 | – | – | –
3 | CN1CCN(CCCN2C(=O)CCc3ccccc32)CC1 [5c, 1-(3-(4-Methylpiperazin-1-yl)propyl)-3,4-dihydroquinolin-2(1H)-one] | 2 ± 1 | 12 ± 3.2 | 49 ± 13 | CNS + (CNS + (high BBB permeability predicted), Pe (10^−6 cm∙s^−1) > 4.0) | 7 ± 0.4 | – | – | –
4 | O=C1CCc2ccccc2N1CCCN1CCOCC1 [5d, 1-(3-Morpholinopropyl)-3,4-dihydroquinolin-2(1H)-one] | 1.1 ± 0.3 | 20 ± 1.6 | 80 ± 6.3 | CNS + (CNS + (high BBB permeability predicted), Pe (10^−6 cm∙s^−1) > 4.0) | 12 ± 2 | – | – | –
5 | O=C1CCc2ccccc2N1CCCN1CCSCC1 [5e, 1-(3-Thiomorpholinopropyl)-3,4-dihydroquinolin-2(1H)-one] | 0.5 ± 0.1 | 7.6 ± 1.9 | 30 ± 7.7 | CNS + (CNS + (high BBB permeability predicted), Pe (10^−6 cm∙s^−1) > 4.0) | 24 ± 2.1 | – | – | –
6 | CCN(CC)CCCN1C(=O)CCc2ccccc21 [5f, 1-(3-(Diethylamino)propyl)-3,4-dihydroquinolin-2(1H)-one] | 0.9 ± 0.2 | 37 ± 8.6 | 150 ± 34 | CNS + (CNS + (high BBB permeability predicted), Pe (10^−6 cm∙s^−1) > 4.0) | 9.4 ± 0.4 | – | – | –
7 | COCCN(C)CCCN1C(=O)CCc2ccccc21 [5g, 1-(3-((2-Methoxyethyl)(methyl)amino)propyl)-3,4-dihydroquinolin-2(1H)-one] | 1.5 ± 0.5 | 26 ± 6.1 | 106 ± 24 | CNS + (CNS + (high BBB permeability predicted), Pe (10^−6 cm∙s^−1) > 4.0) | 10 ± 1.6 | – | – | –
8 | O=C1CCc2ccccc2N1CCCCN1CCCC1 [6a, 1-(4-(Pyrrolidin-1-yl)butyl)-3,4-dihydroquinolin-2(1H)-one] | 1.1 ± 0.2 | 23 ± 3.6 | 93 ± 14 | CNS + (CNS + (high BBB permeability predicted), Pe (10^−6 cm∙s^−1) > 4.0) | 7.7 ± 1.8 | – | – | –
9 | O=C1CCc2ccccc2N1CCCCN1CCCCC1 [6b, 1-(4-(Piperidin-1-yl)butyl)-3,4-dihydroquinolin-2(1H)-one] | 0.8 ± 0.2 | 14 ± 2.5 | 57 ± 10 | CNS + (CNS + (high BBB permeability predicted), Pe (10^−6 cm∙s^−1) > 4.0) | 10 ± 1.4 | – | – | –
10 | CN1CCN(CCCCN2C(=O)CCc3ccccc32)CC1 [6c, 1-(4-(4-Methylpiperazin-1-yl)butyl)-3,4-dihydroquinolin-2(1H)-one] | 1.2 ± 0.2 | 21 ± 0.6 | 82 ± 2.3 | CNS + (CNS + (high BBB permeability predicted), Pe (10^−6 cm∙s^−1) > 4.0) | 7.1 ± 1.2 | – | – | –
11 | O=C1CCc2ccccc2N1CCCCN1CCOCC1 [6d, 1-(4-Morpholinobutyl)-3,4-dihydroquinolin-2(1H)-one] | 1.3 ± 0.2 | 41 ± 14 | 166 ± 56 | CNS + (CNS + (high BBB permeability predicted), Pe (10^−6 cm∙s^−1) > 4.0) | 17 ± 2.1 | – | – | –
12 | O=C1CCc2ccccc2N1CCCCN1CCSCC1 [6e, 1-(4-Thiomorpholinobutyl)-3,4-dihydroquinolin-2(1H)-one] | 0.8 ± 0.1 | 9.7 ± 2.3 | 40 ± 8.2 | CNS + (CNS + (high BBB permeability predicted), Pe (10^−6 cm∙s^−1) > 4.0) | 23 ± 3.3 | – | – | –
13 | CCN(CC)CCCCN1C(=O)CCc2ccccc21 [6f, 1-(4-(Diethylamino)butyl)-3,4-dihydroquinolin-2(1H)-one] | 1.8 ± 0.3 | 27 ± 4.7 | 103 ± 19 | CNS + (CNS + (high BBB permeability predicted), Pe (10^−6 cm∙s^−1) > 4.0) | 7.4 ± 0.9 | – | – | –
14 | COCCN(C)CCCCN1C(=O)CCc2ccccc21 [6g, 1-(4-((2-Methoxyethyl)(methyl)amino)butyl)-3,4-dihydroquinolin-2(1H)-one] | 2.1 ± 0.8 | 45 ± 11 | 188 ± 38 | CNS + (CNS + (high BBB permeability predicted), Pe (10^−6 cm∙s^−1) > 4.0) | 9.5 ± 1.1 | – | – | –
15 | NS(=O)(=O)c1cc2c(cc1Cl)N=CNS2(=O)=O [Chlorothiazide, reference compound] | – | – | – | – | 1.2 ± 0.5 | – | – | –
16 | CNC(=C[N+](=O)[O-])NCCSCc1ccc(CN(C)C)o1 [Ranitidine, reference compound] | – | – | – | CNS − (CNS − (low BBB permeability predicted), Pe (10^−6 cm∙s^−1) < 2.0) | 0.4 ± 0.3 | – | – | –
17 | COc1ccccc1N1CCN(CCCN2C(=O)CCc3ccccc32)CC1 [USC-D301] | – | – | – | – | – | 6.4 | 7.8 | –
18 | CCc1cc(Cl)c(OC)c(C(=O)NC[C@@H]2CCCN2CC)c1O [eticlopride] | – | – | – | – | – | – | – | 0.1
